{
  "source": "patent US20260262643A1",
  "about": "“HERBICIDAL BENZOXAZINES” (FMC CORPORATION, priority 2022, published 2026)",
  "key": {"barnyardgrass [1]": {"tested_on": "barnyardgrass", "test": "Test A preemergence", "assay_type": "in vivo, Echinochloa crusgalli", "conditions": "visual injury after 10 days, 0 to 100 scale, 0 is no effect, 100 is complete control", "procedure,_shortened": "(§1)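 Seeds in loam–sand blend received a directed preemergence soil spray of compound in non-phytotoxic solvent with surfactant; postemergence plants (2–10 cm, one- to two-leaf stage) were sprayed with the same formulation. After 10 days in greenhouse, injury was rated visually versus untreated controls, 0 (no effect) to 100 (complete control).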"}, "blackgrass [2]": {"tested_on": "blackgrass", "test": "Test A preemergence", "assay_type": "in vivo, Alopecurus myosuroides", "conditions": "visual injury after 10 days, 0 to 100 scale, 0 is no effect, 100 is complete control", "procedure,_shortened": "as §1"}, "corn [3]": {"tested_on": "corn", "test": "Test A preemergence", "assay_type": "in vivo, Zea mays", "conditions": "visual injury after 10 days, 0 to 100 scale, 0 is no effect, 100 is complete control", "procedure,_shortened": "as §1"}, "foxtail, giant [4]": {"tested_on": "foxtail, giant", "test": "Test A preemergence", "assay_type": "in vivo, Setaria faberi", "conditions": "visual injury after 10 days, 0 to 100 scale, 0 is no effect, 100 is complete control", "procedure,_shortened": "as §1"}, "kochia [5]": {"tested_on": "kochia", "test": "Test A preemergence", "assay_type": "in vivo, Bassia scoparia", "conditions": "visual injury after 10 days, 0 to 100 scale, 0 is no effect, 100 is complete control", "procedure,_shortened": "as §1"}, "oat, wild [6]": {"tested_on": "oat, wild", "test": "Test A preemergence", "assay_type": "in vivo, Avena fatua", "conditions": "visual injury after 10 days, 0 to 100 scale, 0 is no effect, 100 is complete control", "procedure,_shortened": "as §1"}, "pigweed, palmer [7]": {"tested_on": "pigweed, palmer", "test": "Test A preemergence", "assay_type": "in vivo, Amaranthus palmeri", "conditions": "visual injury after 10 days, 0 to 100 scale, 0 is no effect, 100 is complete control", "procedure,_shortened": "as §1"}, "ragweed [8]": {"tested_on": "ragweed", "test": "Test A preemergence", "assay_type": "in vivo, Ambrosia artemisiifolia", "conditions": "visual injury after 10 days, 0 to 100 scale, 0 is no effect, 100 is complete control", "procedure,_shortened": "as §1"}, "ryegrass, Italian [9]": {"tested_on": "ryegrass, Italian", "test": "Test A preemergence", "assay_type": "in vivo, Lolium multiflorum", "conditions": "visual injury after 10 days, 0 to 100 scale, 0 is no effect, 100 is complete control", "procedure,_shortened": "as §1"}, "soybean [10]": {"tested_on": "soybean", "test": "Test A preemergence", "assay_type": "in vivo, Glycine max", "conditions": "visual injury after 10 days, 0 to 100 scale, 0 is no effect, 100 is complete control", "procedure,_shortened": "as §1"}, "wheat [11]": {"tested_on": "wheat", "test": "Test A preemergence", "assay_type": "in vivo, Triticum aestivum", "conditions": "visual injury after 10 days, 0 to 100 scale, 0 is no effect, 100 is complete control", "procedure,_shortened": "as §1"}, "barnyardgrass [12]": {"tested_on": "barnyardgrass", "test": "Test A postemergence", "assay_type": "in vivo, Echinochloa crusgalli", "conditions": "postemergence, 10 days", "procedure,_shortened": "as §1"}, "blackgrass [13]": {"tested_on": "blackgrass", "test": "Test A postemergence", "assay_type": "in vivo, Alopecurus myosuroides", "conditions": "postemergence, 10 days", "procedure,_shortened": "as §1"}, "corn [14]": {"tested_on": "corn", "test": "Test A postemergence", "assay_type": "in vivo, Zea mays", "conditions": "postemergence, 10 days", "procedure,_shortened": "as §1"}, "foxtail, giant [15]": {"tested_on": "foxtail, giant", "test": "Test A postemergence", "assay_type": "in vivo, Setaria faberi", "conditions": "postemergence, 10 days", "procedure,_shortened": "as §1"}, "kochia [16]": {"tested_on": "kochia", "test": "Test A postemergence", "assay_type": "in vivo, Bassia scoparia", "conditions": "postemergence, 10 days", "procedure,_shortened": "as §1"}, "oat, wild [17]": {"tested_on": "oat, wild", "test": "Test A postemergence", "assay_type": "in vivo, Avena fatua", "conditions": "postemergence, 10 days", "procedure,_shortened": "as §1"}, "pigweed, palmer [18]": {"tested_on": "pigweed, palmer", "test": "Test A postemergence", "assay_type": "in vivo, Amaranthus palmeri", "conditions": "postemergence, 10 days", "procedure,_shortened": "as §1"}, "ragweed [19]": {"tested_on": "ragweed", "test": "Test A postemergence", "assay_type": "in vivo, Ambrosia artemisiifolia", "conditions": "postemergence, 10 days", "procedure,_shortened": "as §1"}, "ryegrass, Italian [20]": {"tested_on": "ryegrass, Italian", "test": "Test A postemergence", "assay_type": "in vivo, Lolium multiflorum", "conditions": "postemergence, 10 days", "procedure,_shortened": "as §1"}, "soybean [21]": {"tested_on": "soybean", "test": "Test A postemergence", "assay_type": "in vivo, Glycine max", "conditions": "postemergence, 10 days", "procedure,_shortened": "as §1"}, "wheat [22]": {"tested_on": "wheat", "test": "Test A postemergence", "assay_type": "in vivo, Triticum aestivum", "conditions": "postemergence, 10 days", "procedure,_shortened": "as §1"}, "galium": {"tested_on": "galium", "test": "Test A postemergence", "assay_type": "in vivo, Galium aparine", "conditions": "postemergence, 10 days", "procedure,_shortened": "as §1"}, "horseweed": {"tested_on": "horseweed", "test": "Test A postemergence", "assay_type": "in vivo, Erigeron canadensis", "conditions": "postemergence, 10 days", "procedure,_shortened": "as §1"}, "barnyardgrass [23]": {"tested_on": "barnyardgrass", "test": "Test B flooded paddy test", "assay_type": "in vivo, Echinochloa crus-galli", "conditions": "250 g ai/ha, Flood, 13 days, 0 to 100 scale (0 no effect, 100 complete control)", "procedure,_shortened": "(§2)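 Compound is introduced into paddy water covering soil by 3 cm, treating plants that have reached two leaves. Pots are kept flooded at that depth under greenhouse conditions. Assessment at 13 days gives a 0–100 visual control score.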"}, "ducksalad": {"tested_on": "ducksalad", "test": "Test B flooded paddy test", "assay_type": "in vivo, Heteranthera limosa", "conditions": "250 g ai/ha, Flood, 13 days, 0 to 100 scale (0 no effect, 100 complete control)", "procedure,_shortened": "as §2"}, "rice": {"tested_on": "rice", "test": "Test B flooded paddy test", "assay_type": "in vivo, Oryza sativa", "conditions": "250 g ai/ha, Flood, 13 days, 0 to 100 scale (0 no effect, 100 complete control)", "procedure,_shortened": "as §2"}, "sedge, umbrella": {"tested_on": "sedge, umbrella", "test": "Test B flooded paddy test", "assay_type": "in vivo, Cyperus difformis", "conditions": "250 g ai/ha, Flood, 13 days, 0 to 100 scale (0 no effect, 100 complete control)", "procedure,_shortened": "as §2"}, "[24]": {"conditions": "125 g ai/ha, 0 to 100 scale, 0 no effect, 100 complete control"}, "[25]": {"conditions": "500 g ai/ha, visual injury, 0 to 100 scale (0 no effect, 100 complete control)"}},
  "data": [
    {"compound": "CC(C)Cc1ncn(-c2cccc(C(=O)N3C[C@H](C)Oc4c(Cl)cccc43)c2)n1", "note": "[Compound 112]", "values": [
      {"measurement": "Plant response rating, Barnyardgrass", "setting": "barnyardgrass [1]; 125 g ai/ha", "value": 40},
      {"measurement": "Plant response rating, Barnyardgrass", "setting": "barnyardgrass [1]; 500 g ai/ha", "value": 100},
      {"measurement": "Plant response rating, Blackgrass", "setting": "blackgrass [2]; 125 g ai/ha", "value": 20},
      {"measurement": "Plant response rating, Blackgrass", "setting": "blackgrass [2]; 500 g ai/ha", "value": 80},
      {"measurement": "Plant response rating, Corn", "setting": "corn [3]; 125 g ai/ha", "value": 0},
      {"measurement": "Plant response rating, Corn", "setting": "corn [3]; 500 g ai/ha", "value": 0},
      {"measurement": "Plant response rating, Foxtail, Giant", "setting": "foxtail, giant [4]; 125 g ai/ha", "value": 50},
      {"measurement": "Plant response rating, Foxtail, Giant", "setting": "foxtail, giant [4]; 500 g ai/ha", "value": 90},
      {"measurement": "Plant response rating, Kochia", "setting": "kochia [5]; 125 g ai/ha", "value": 0},
      {"measurement": "Plant response rating, Kochia", "setting": "kochia [5]; 500 g ai/ha", "value": 60},
      {"measurement": "Plant response rating, Oat, Wild", "setting": "oat, wild [6]; 125 g ai/ha", "value": 0},
      {"measurement": "Plant response rating, Oat, Wild", "setting": "oat, wild [6]; 500 g ai/ha", "value": 20},
      {"measurement": "Plant response rating, Pigweed, Palmer", "setting": "pigweed, palmer [7]; 125 g ai/ha", "value": 50},
      {"measurement": "Plant response rating, Pigweed, Palmer", "setting": "pigweed, palmer [7]; 500 g ai/ha", "value": 100},
      {"measurement": "Plant response rating, Ragweed", "setting": "ragweed [8]; 125 g ai/ha", "value": 0},
      {"measurement": "Plant response rating, Ragweed", "setting": "ragweed [8]; 500 g ai/ha", "value": 40},
      {"measurement": "Plant response rating, Ryegrass, Italian", "setting": "ryegrass, Italian [9]; 125 g ai/ha", "value": 40},
      {"measurement": "Plant response rating, Ryegrass, Italian", "setting": "ryegrass, Italian [9]; 500 g ai/ha", "value": 90},
      {"measurement": "Plant response rating, Soybean", "setting": "soybean [10]; 125 g ai/ha", "value": 0},
      {"measurement": "Plant response rating, Soybean", "setting": "soybean [10]; 500 g ai/ha", "value": 50},
      {"measurement": "Plant response rating, Wheat", "setting": "wheat [11]; 125 g ai/ha", "value": 20},
      {"measurement": "Plant response rating, Wheat", "setting": "wheat [11]; 500 g ai/ha", "value": 40},
      {"measurement": "Barnyardgrass plant response rating", "setting": "barnyardgrass [12]; [24]", "value": 10},
      {"measurement": "Plant response rating, Barnyardgrass", "setting": "barnyardgrass [12]; [25]", "value": 40},
      {"measurement": "Blackgrass plant response rating", "setting": "blackgrass [13]; [24]", "value": 0},
      {"measurement": "Plant response rating, Blackgrass", "setting": "blackgrass [13]; [25]", "value": 60},
      {"measurement": "Corn plant response rating", "setting": "corn [14]; [24]", "value": 20},
      {"measurement": "Plant response rating, Corn", "setting": "corn [14]; [25]", "value": 40},
      {"measurement": "Foxtail, Giant plant response rating", "setting": "foxtail, giant [15]; [24]", "value": 20},
      {"measurement": "Plant response rating, Foxtail, Giant", "setting": "foxtail, giant [15]; [25]", "value": 70},
      {"measurement": "Kochia plant response rating", "setting": "kochia [16]; [24]", "value": 70},
      {"measurement": "Plant response rating, Kochia", "setting": "kochia [16]; [25]", "value": 90},
      {"measurement": "Oat, Wild plant response rating", "setting": "oat, wild [17]; [24]", "value": 10},
      {"measurement": "Plant response rating, Oat, Wild", "setting": "oat, wild [17]; [25]", "value": 30},
      {"measurement": "Pigweed, Palmer plant response rating", "setting": "pigweed, palmer [18]; [24]", "value": 50},
      {"measurement": "Plant response rating, Pigweed, Palmer", "setting": "pigweed, palmer [18]; [25]", "value": 90},
      {"measurement": "Ragweed plant response rating", "setting": "ragweed [19]; [24]", "value": 0},
      {"measurement": "Plant response rating, Ragweed", "setting": "ragweed [19]; [25]", "value": 0},
      {"measurement": "Ryegrass, Italian plant response rating", "setting": "ryegrass, Italian [20]; [24]", "value": 10},
      {"measurement": "Plant response rating, Ryegrass, Italian", "setting": "ryegrass, Italian [20]; [25]", "value": 60},
      {"measurement": "Soybean plant response rating", "setting": "soybean [21]; [24]", "value": 90},
      {"measurement": "Plant response rating, Soybean", "setting": "soybean [21]; [25]", "value": 100},
      {"measurement": "Wheat plant response rating", "setting": "wheat [22]; [24]", "value": 10},
      {"measurement": "Plant response rating, Wheat", "setting": "wheat [22]; [25]", "value": 20},
      {"measurement": "Galium plant response rating", "setting": "galium; [24]", "value": 90},
      {"measurement": "Plant response rating, Galium", "setting": "galium; [25]", "value": 100},
      {"measurement": "Horseweed plant response rating", "setting": "horseweed; [24]", "value": 0},
      {"measurement": "Plant response rating, Horseweed", "setting": "horseweed; [25]", "value": 0},
      {"measurement": "Plant response rating, Barnyardgrass", "setting": "barnyardgrass [23]", "value": 0},
      {"measurement": "Plant response rating, Ducksalad", "setting": "ducksalad", "value": 0},
      {"measurement": "Plant response rating, Rice", "setting": "rice", "value": 0},
      {"measurement": "Plant response rating, Sedge, Umbrella", "setting": "sedge, umbrella", "value": 0}
    ]}
  ]
}
